Laboratory results published in patent US12617781B2, “Utidelone semi-hydrated single crystal and preparation method therefor and use thereof” (Beijing Biostar Pharmaceuticals Co., Ltd., priority 2020, dated 2026).
Read-outs that look alike come from different tables or passages of the source.

Columns and labels:
[1] = Stability under high humidity; assay type: physicochemical
From the text: The semihydrate crystal obtained in Example 1 was placed under the condition of relative humidity of 90%±5% for 10 days, and samples were taken on the 5th and 10th days.
Utidelone anhydrous crystal was placed under the condition of relative humidity of 90±5% for 10 days. Samples were taken on the 5th and 10th days. The moisture content increased and the moisture absorption was obvious.

[2] = PK study on intravenous administration of the pharmaceutical composition containing Utidelone semihydrate crystal; assay type: in vivo; settings: for MRT / AUC(0-t) / half-life: human, in vivo, iv, 40 mg/m2, intravenous infusion 40 mg/m2 once a day for 5 days; for AUC(0-t): read-out: AUC(0-24); for half-life: read-out: elimination half-life t½ in plasma (converted); for apparent volume of distribution / plasma clearance CL: intravenous infusion 40 mg/m2 once a day for 5 days
Protocol: Utidelone injection was prepared with Utidelone crystals (crystal A or mixed crystals containing crystal A) and 50% v/v absolute ethanol (USP), 30% v/v propylene glycol (USP) and 20% v/v polyoxyl castor oil 1 (Cremophor EL or ELP) as a solubilizer. The injection has low water content and high stability.

[3] = Stability test of the semihydrate crystal under storage conditions (temperature); assay type: physicochemical
Protocol: Stability test: The stability test of the semihydrate crystal was carried out under the following conditions:
(§1) Storage condition 1: 2-25° C., stored in a sealed state for more than 3 years, confirmed by NMR, HPLC, X-ray powder diffraction and infrared spectrum analysis, etc., the semihydrate crystal was stable (no changes in content, no impurities due to degradation, no changes in appearance and physicochemical properties).
as §1, with “Condition 2: 25°” for “condition 1: 2-25°”, “60%±10% RH, unsealed storage” for “stored in a sealed state”, “days, after the sample was continued to be stored at 25° C. for 1 year, it was” for “years,”
as §1, with “3: Stored” for “1: 2-25° C., stored”, “state at 40° C.” for “state”, “2 years. It was” for “3 years,”
as §1, with “Condition 4: Stored at 60° C.” for “condition 1: 2-25° C., stored in a sealed state”, “1 year. It was” for “3 years,”

[4] = Stability under strong light (light box); assay type: physicochemical; settings: 4500 lx±500 lx, 10 days
From the text: The semihydrate crystal obtained in Example 1 was placed in a light box, and placed for 10 days under the condition that the light intensity was 4500 lx±500 lx.

Solubility test = assay type: physicochemical; settings: thermodynamic from solid
[5] = Stability in 0.1N hydrochloric acid solution; assay type: physicochemical
Protocol: The semihydrate crystal obtained in Example 1 was placed in a 0.1N hydrochloric acid solution, and the crystal was stable: no obvious degradation impurities were produced. Solubility >5 mg/ml.

[6] = relative humidity 90%±5%, 10 days, samples on 5th and 10th days
[7] = high humidity conditions (summary statement)

For `C/C1=C/C[C@@H](/C(C)=C/c2csc(C)n2)OC(=O)C[C@H](O)C(C)(C)C(=O)[C@H](C)[C@@H](O)[C@@H](C)CCC1` [Utidelone anhydrous crystal], the Moisture content [1, 6] was “increased” and the Moisture absorption ([1]; relative humidity 90±5%, 10 days, samples on 5th and 10th days) was “obvious”.
In the case of `C/C1=C/C[C@@H](/C(C)=C/c2csc(C)n2)OC(=O)C[C@H](O)C(C)(C)C(=O)[C@H](C)[C@@H](O)[C@@H](C)CCC1` [Utidelone], the “Accumulation in the body after continuous administration” value ([2]; 40 mg/m2 once a day for 5 days, first vs last administration) is reported as “did not accumulate”, the MRT ([2]; 1st day) is reported as 4.5 ± 0.8 h and the AUC(0-t) ([2]; 1st day) is reported as 4180 ± 1010 ng·h/mL. The half-life ([2]; 1st day) was 8.6 ± 0.1 h, the MRT ([2]; 5th day) was 5.1 ± 0.7 h and the AUC(0-t) ([2]; 5th day) was 4550 ± 1630 ng·h/mL. The half-life ([2]; 5th day) was 8.2 ± 1.1 h, the “apparent volume of distribution” value ([2]; 1st day) was 114.0±35.2 L/m2 and the “plasma clearance CL” value ([2]; 1st day) was 9.2±2.7 L/h/m2. The “apparent volume of distribution” value ([2]; 5th day) was 109.1±62.6 L/m2 and the “plasma clearance CL” value ([2]; 5th day) was 8.9±3.9 L/h/m2.
For `C/C1=C/C[C@@H](/C(C)=C/c2csc(C)n2)OC(=O)C[C@H](O)C(C)(C)C(=O)[C@H](C)[C@@H](O)[C@@H](C)CCC1` [semihydrate crystal], the “Storage time without changes in substance” value ([3]; 40° C.) was “more than 3 years”, the “Storage time without changes in substance” value ([3]; 60° C.) was “more than 1 year” and the “Stability (content, degradation impurities, appearance, physicochemical properties)” value ([3]; Storage condition 1: 2-25° C., sealed, more than 3 years, NMR, HPLC, XRPD, IR) was “stable”. For the same compound, the “Stability (content, degradation impurities, appearance, physicochemical properties)” value ([3]; Storage condition 2: 25° C., 60%±10% RH, unsealed more than 3 days, then 25° C. for 1 year) was “stable”, the “Stability (content, degradation impurities, appearance, physicochemical properties)” value ([3]; Storage condition 3: sealed, 40° C., more than 2 years) was “stable” and the “Stability (content, degradation impurities, appearance, physicochemical properties)” value ([3]; Storage condition 4: 60° C., more than 1 year) was “stable”. The Stability [1, 7] was “very stable”, the Water content [1, 7] was “does not change significantly” and the Moisture content [1, 6] was “basically unchanged”. The “Stability (content, degradation impurities, appearance, physicochemical properties)” value [1, 6] was “stable”, the Moisture content [4] was “basically unchanged” and the “Stability (content, degradation impurities, appearance, physicochemical properties)” value [4] was “stable”. It also gave a solubility (Solubility test; 0.1N hydrochloric acid solution, simulated gastric fluid) greater than 5 mg/mL, a solubility (Solubility test; 50% ethanol, 30% propylene glycol, 20% castor oil, organic solvent or mixture) greater than 100 mg/mL and a solubility (Solubility test; DMSO, organic solvent or mixture) greater than 50 mg/mL. For the same compound, the solubility (Solubility test; benzyl alcohol, organic solvent or mixture) was greater than 50 mg/mL, the solubility (Solubility test; ethanol, organic solvent or mixture) was greater than 50 mg/mL and the solubility (Solubility test; methanol, organic solvent or mixture) was greater than 50 mg/mL. The solubility (Solubility test; propylene glycol, organic solvent or mixture) was greater than 50 mg/mL and the “Stability (degradation impurities)” value [5] was “stable”.
